“Also recorded” adds a separate entry of the source.
Assays:
coronary arteries [1] = experiment: Mechanical injury coronary vasospasm protocol (Protocol 2); format: in vivo, rhesus monkeys (Macaca mulatta); conditions: serotonin 67 μmol/liter IC; U46619 67 nmol/liter or 1 nmol/liter; ET1 ≦10 nmol/liter; AII ≦10 μmol/liter
From the text: A separate mechanical injury, Protocol 2, was used in three additional monkeys (one male, two ovx). The injury step of Protocol 2, was deliberate mechanical stretching of the LAD or left main coronary artery with a 5F catheter.
In Protocol 2, steps 1-5 were the same as in Protocol 1. The remaining steps were as follows:
7. IC injection of angiotensin II (sequential doses to 10 μmol/liter);
8. Injury by stretching the coronary artery with a 5F catheter;
9. IC injection of serotonin (sequential doses to 1 mmol/liter);
(§1) 10. IC injection 15 minutes later with 1 or 10 μmol/liter nitrendipine or Ro 40-5967 (mibefradil);
11. IC injection of […] (sequential doses to 10 μmol/liter); and
(§2) 12. IC injection 15 minutes later with 1 or 10 μmol/liter nitrendipine or Ro 40-5967.
Putative coronary vasospasm stimuli were judged primarily by actions on large coronary artery diameters, analyzed as diameter of the most proximal focus of vasospasm at end-diastole from video-taped images recorded at 30 frames/s. We used the image analysis program Image Pro to measure the diameters from single frames acquired with an Imagraph frame grabber in a Pentium computer. We used the 3F catheter tip radio-opaque marker ring (1.0 mm) for calibration and determined minimal and maximal diameters just distal to the constriction. All responses to interventions were also X-ray imaged immediately (15 to 30 s after injection) and at exactly 3 minutes (and 15 minutes if there was vasospasm) after injection.

coronary arteries [2] = system: coronary arteries
coronary arteries [3] = experiment: animal or person; conditions: Macaca mulatta, read-out: EC50 (-log mol/liter) (converted)
coronary arteries [4] = experiment: Relief of coronary vasospasm by intracoronary Ca2+ antagonist; format: in vivo, rhesus monkeys (Macaca mulatta)
Procedure: The eighth to tenth steps, which were 1 ml injections of 100 μmol/liter serotonin and 1 μmol/liter U46619 combined, were the critical steps. These concentrations of serotonin and U46619, injected in three repeated challenges, provoked drug-induced vasospasm. Sensitivity was determined by whether the vasospasm response occurred to the first, second or third stimulus, allowing at least a 7-minute delay from one injection to the next. For three of these seven ovx monkeys, 1-2 nM endothelin-1 (alone and plus serotonin) and 1 μmol/liter angiotensin-II (alone and plus serotonin) steps were administered between steps 10 and 11 (as additional challenges), but these extra steps never produced vasospasm. […] Step 12 was a Ca^2+ antagonist, either nitrendipine or mibefradil, as a vasodilator to relieve the vasospasm or cardiogenic shock that was the end point.
as §1, §2
To allow monkeys to recover and prevent death due to cardiogenic shock, we followed combined serotonin and U46619 stimulation with an IC Ca^2+ antagonist, either nitrendipine or mibefradil, at the end of the 15 minute vasospasm, except for that in FIG. 2. […] In monkeys with severe vasoconstriction and low heart rates (<90 beats/minute), Ca^2+ antagonists effected increases to 90 to 200 beats/minute due to reversal of atrioventricular […] conduction blocks (evident in the recovery of heart rate shown in Table 2).

Row | SMILES | coronary vasospasm with mechanical injury (5F catheter stretch) (coronary arteries [1]) | Spasms/N (coronary arteries [2]; Protocol 1, number of animals with vasospasm / number of animals) | ED50 (-log mol/liter) (coronary arteries [2]; Protocol 1, syringe concentration of the named vasoconstrictor causing 50% reduction of diameter from control, combined stimuli with 100 μmol/liter serotonin) | vasoactivity / constriction of arteries on IC injection of single agent (coronary arteries [2]; serotonin 67 nmol/liter to 667 μmol/liter, U46619 6.7 to 2,000 nmol/liter) | coronary vasospasm on IC injection (no mechanical injury) (coronary arteries [2]; serotonin 6.7 or 200 μmol/liter alone, U46619 6.7 to 2,000 nmol/liter alone, AII up to 200 nmol/liter, combination 6.7 μmol/liter serotonin and 67 nmol/liter U46619, triple combination with ET1) | EC50 (coronary arteries [3]) | relief of coronary vasospasm (coronary arteries [4]; IC injection, nitrendipine 1 to 10 μmol/liter, mibefradil 0.1 to 10 μmol/liter, not allowing for dilution) | blood pressures returned to normal ranges (minimums, systolic/diastolic) (coronary arteries [4]; Mibefradil IC 0.1 to 10 μmol/liter, from diastolic levels as low as 10 to 20 mm Hg) | blood pressure after IC mibefradil (coronary arteries [4]; one MPA monkey of Example 2, nadir 38/20 mm Hg, after 15 minutes vasospasm)
1 | NCCc1c[nH]c2ccc(O)cc12 [Serotonin, serotonin] | caused coronary vasospasm at multiple sites; also recorded: Vasospasm was stimulated | 0/8 | 2.5 -log mol/liter | vasoactive in all animals | vasospasm could not be found | 0.000158 mol/L |  |  | 
2 | COCC(=O)O[C@]1(CCN(C)CCCc2nc3ccccc3[nH]2)CCc2cc(F)ccc2[C@@H]1C(C)C [mibefradil] |  |  |  |  |  |  | immediately effective in relieving vasospasm | 100/60 | 124/84
